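96-well plates; 48 h exposure; 5 concentrations. Endpoints by linear interpolation between flanking doses. Not reached: highest tested concentration assigned. GI50: concentration for 50% inhibition of growth. At the TGI there is no net growth.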
Key:
Experiment in all cases: inhibition of tumour cell growth, NCI panel, 48 h
[1] = system: RPMI-8226 leukemia
[2] = system: UACC-257 melanoma
[3] = system: HCT-116 colon
[4] = system: M14 melanoma
[5] = system: OVCAR-5 ovarian
[6] = system: SR leukemia
[7] = system: SK-OV-3 ovarian
[8] = system: RXF 393 renal
[9] = system: NCI-H460 lung
[10] = system: KM12 colon

Row | SMILES | TGI [1] | TGI [2] | TGI [3] | TGI [4] | TGI [5] | TGI [6] | TGI [7] | TGI [8] | TGI [9] | TGI [10] | GI50 [1] | GI50 [2] | GI50 [3] | GI50 [4] | GI50 [5] | GI50 [6] | GI50 [7] | GI50 [8] | GI50 [9] | GI50 [10]
1 | Nc1ccccc1C(=O)/C=C/c1c(O)ccc2ccccc12 | > 100 µM | > 100 µM | > 100 µM | > 100 µM | > 100 µM | > 100 µM | > 100 µM | > 100 µM | > 100 µM | > 100 µM | – | – | – | – | – | – | – | – | – | –
2 | O=[N+]([O-])c1cccc(C2=NOC(C3CCCCC3)C2)c1 (stereo unspecified) | – | > 100 µM | > 100 µM | > 100 µM | > 100 µM | – | > 100 µM | – | > 100 µM | > 100 µM | – | – | – | – | – | – | – | – | – | –
3 | O=C(CC(=O)C1CCOC1=O)C(=O)Nc1cccc(Cl)c1 (stereo unspecified) | > 100 µM | > 100 µM | > 100 µM | > 100 µM | > 100 µM | – | > 100 µM | > 100 µM | > 100 µM | > 100 µM | – | – | – | – | – | – | – | – | – | –
4 | COc1ccc(CC2c3c(cc(OC)c(OC)c3OC)CCN2C)cc1OC (stereo unspecified) | > 100 µM | > 100 µM | > 100 µM | > 100 µM | > 100 µM | – | – | – | > 100 µM | > 100 µM | – | – | – | – | – | – | – | – | – | –
5 | CN(C)CCNCCN | > 100 µM | > 100 µM | > 100 µM | > 100 µM | > 100 µM | > 100 µM | > 100 µM | – | > 100 µM | > 100 µM | – | – | – | – | – | – | – | – | – | –
6 | CC1CC(O)C(=O)C(O[C@@H]2C[C@@H]3CC[C@@H]4[C@H](CC[C@]5(C)C(C6=CC(=O)OC6)CC[C@]45O)[C@@]3(C=O)C[C@H]2O)O1 (stereo partly specified) | 0.246 µM | 0.418 µM | 0.0511 µM | 0.178 µM | 0.283 µM | 0.0792 µM | 0.122 µM | 0.0506 µM | 0.0414 µM | 0.44 µM | – | – | – | – | – | – | – | – | – | –
7 | CC(C)CCC[C@@H](C)C1CCC2[C@@H]3CC=C4C[C@@H](C(=O)NCCN(C)C)CC[C@]4(C)C3CC[C@@]21C (stereo partly specified) | 94 µM | 77.1 µM | – | 32.6 µM | > 100 µM | – | > 100 µM | > 100 µM | > 100 µM | 28.2 µM | – | – | – | – | – | – | – | – | – | –
8 | CC(C(=O)c1ccc(Cl)cc1)/C(=N/NC(=O)NN)C(=O)Nc1cccc(C(F)(F)F)c1 (stereo unspecified) | > 100 µM | > 100 µM | > 100 µM | > 100 µM | > 100 µM | – | > 100 µM | > 100 µM | > 100 µM | – | – | – | – | – | – | – | – | – | – | –
9 | C=CC(=O)N1CN(C(=O)C=C)CN(C(=O)C=C)C1 | 6.76 µM | 4.59 µM | 3.33 µM | 7.86 µM | 24.7 µM | 6.82 µM | > 100 µM | 2.83 µM | 50.4 µM | 38.6 µM | 2.29 µM | 1.82 µM | 1.77 µM | 2.85 µM | 10.6 µM | 2.46 µM | 26.8 µM | 1.33 µM | 21.7 µM | 18.5 µM
10 | CC(C)(C)c1ccc2c(c1)S(=O)(=O)Nc1ccc(Cl)cc1NS(=O)(=O)c1cc(C(C)(C)C)ccc1OCCOCCOCCO2 | – | > 100 µM | > 100 µM | > 100 µM | > 100 µM | – | 86.3 µM | 79.1 µM | > 100 µM | > 100 µM | – | – | – | – | – | – | – | – | – | –
11 | Cc1ccc(OCCOCCOCCOCCOc2ccc(C)n(O)c2=S)c(=S)n1O | > 64 µM | > 29.5 µM | > 100 µM | – | > 100 µM | > 100 µM | > 100 µM | 22.3 µM | 7.28 µM | > 100 µM | 0.0267 µM | 0.0192 µM | < 0.01 µM | – | 0.408 µM | 0.0616 µM | 0.0753 µM | 1.55 µM | < 0.01 µM | 0.0818 µM
12 | Cn1cc(-c2csc(-c3cn(CCCCN4CCCCC4)c4ccccc34)n2)c2cccnc21 | – | – | – | – | 3.06 µM | – | 3.21 µM | 2.99 µM | 3.44 µM | – | – | – | – | – | 1.6 µM | – | 1.77 µM | 1.48 µM | 1.83 µM | –
13 | CC(C)=C1CCC(CN(C)C)C1=O (stereo unspecified) | – | 31.6 µM | 30.3 µM | 28.4 µM | > 100 µM | 36.5 µM | – | 33.5 µM | > 100 µM | > 100 µM | – | – | – | – | – | – | – | – | – | –
14 | CCC/C=C/C=C/C1CC(O)C(O)C(=O)C1CO (stereo unspecified) | > 100 µM | > 100 µM | > 100 µM | > 100 µM | > 100 µM | – | > 100 µM | > 100 µM | > 100 µM | > 100 µM | – | – | – | – | – | – | – | – | – | –
15 | NC(=O)C(=O)CC(=O)c1ccccc1NC1=CC(=O)C(=O)c2ccccc21 | > 100 µM | > 75.7 µM | > 100 µM | > 100 µM | > 100 µM | – | > 100 µM | > 100 µM | > 100 µM | > 100 µM | – | – | – | – | – | – | – | – | – | –
16 | COC(=O)C(=O)C(C(C)=O)C(=O)NCc1ccc(OC)c(OC)c1 (stereo unspecified) | – | > 100 µM | > 100 µM | > 100 µM | > 100 µM | > 100 µM | > 100 µM | > 100 µM | > 100 µM | > 100 µM | – | – | – | – | – | – | – | – | – | –
17 | ClCCN(CCCl)c1ccc(CNc2ccccc2)cc1 | 69.4 µM | > 100 µM | > 100 µM | > 100 µM | > 100 µM | > 100 µM | > 100 µM | – | > 100 µM | > 100 µM | 12.9 µM | 12.7 µM | 9.67 µM | 8.27 µM | 25.8 µM | 0.674 µM | 12 µM | – | 1.21 µM | 24.7 µM
18 | CCOP(=O)(OCC)C(C(=O)OC)C(=O)C(=O)Nc1ccc(Cl)cc1Cl (stereo unspecified) | > 100 µM | > 100 µM | > 100 µM | > 100 µM | > 100 µM | – | > 100 µM | > 100 µM | > 100 µM | > 100 µM | – | – | – | – | – | – | – | – | – | –
19 | N#CCCN1C/C(=C/c2ccc(Br)cc2)C(=O)/C(=C/c2ccc(Br)cc2)C1 | > 100 µM | 5.32 µM | 0.345 µM | 4.15 µM | 3.97 µM | – | 8.1 µM | 3.04 µM | – | – | 0.262 µM | 2.09 µM | 0.181 µM | 1.99 µM | 1.92 µM | – | 2.93 µM | 1.55 µM | – | –
20 | CCc1ccc2c(c1)C(=O)c1c-2n(CCCN=[N+]=[N-])c(=O)c2cc([N+](=O)[O-])ccc12 | > 50 µM | > 50 µM | > 50 µM | > 50 µM | > 50 µM | > 50 µM | – | > 50 µM | > 50 µM | > 50 µM | > 50 µM | > 50 µM | > 50 µM | > 50 µM | > 50 µM | > 50 µM | – | > 50 µM | > 50 µM | > 50 µM

Source: PubChem BioAssay (NCI)
